From patent publication US8889677B2, “Substituted triazoles useful as mGlu5 receptor modulators” (Boehringer Ingellheim International GmbH, priority 2012, dated 2014)

Biological target: T1, human recombinant mGluR5 (Homo sapiens, UniProt P41594)
T1 construct: expressed in transfected cells; host or cells: HEK 293 cell line cultured with tetracycline, hygromycin and geneticin; tetracycline removed 3-7 days before the assay
Assay: positive modulation of mGluR5, calcium based FLIPR assay in HEK 293 cells
Details: HEK 293 cell line expressing human recombinant mGluR5; EC50 of the modulation of the glutamate response (glutamate approx. 5% basal stimulation); peak height of Ca release fluorescence signal
Procedure: The positive modulation of mGluR5 is measured in a HEK 293 cell line expressing human recombinant mGluR5 and is detected with calcium based FLIPR assay. The cells are cultured with DMEM supplemented with 10% FCS, 2 μg/mL tetracycline, 100 μg/mL hygromycin and 500 μg/mL gneticin. The cell culture media is exchanged for tetracycline-free cell culture media 3-7 days before the assay. One day before the assay the cell culture medium is exchanged to DMEM without glutamine and phenol red and supplemented with 10% FCS, 100 μg/mL hygromycin and 500 μg/mL geneticin. On the assay day, the medium of the subconfluent cultures is removed and the cells are detached by addition of 2.5 ml EDTA (0.02%) per 175 cm2 culture flask for 1 minute. The cells are resuspend in Ringer solution (140 mM NaCl, 5 mM KCl, 2.5 mM CaCl2, 1.5 mM MgCl2, 5 mM Glucose, 10 mM Hepes; adjusted to pH 7.4 with NaOH), pooled and Ringer solution added to adjust the volume to 50 mL. The cell suspension is centrifuged for […] at 1500 U/min (425 g). The supernatant is removed and the cells washed a second time with 50 ml fresh Ringer solution and centrifuged again as before. The supernatant is again removed and the pellet resuspended in Ringer solution to 1,000,000 cells/ml (1×10^6 cells/mL). The cells are plated onto BD BioCoat Poly-D-Lysine 384 well plates (20.000 cells/well; 20 μl/well). The lid covered plates are then incubated until use at 37° C./10% CO2. For dye loading, 20 μl of Calcium-4 assay kit solution (prepared according to the manufacturer's description in Ringer solution) are added to the cells and the plates are incubated for 80 min 37° C. and then 10 min at room temperature.
Controls, Compound Dilution and Assay Execution:
Each assay plate contained wells with “high” and “low” controls:
Low controls 1% DMSO/ringer solution+basal glutamate activation (defined as 100% CTL).
High controls 10 μM CDPPB+basal glutamate activation (defined as 200% CTL).
Test compounds are dissolved and diluted in DMSO to 100-fold the desired concentrations. In a second step, the compounds are diluted in Ringer solution such that the compounds are 4-fold more concentrated than the desired final assay concentration. The final DMSO concentration was 1%.
20 μl of each compound solution are then transferred to the assay plate and the Ca2+ kinetic is measured to determine any intrinsic compound activity. After 5 min incubation in the FLIPR device, the second stimulation with 20 μl of glutamate in Ringer solution (glutamate concentration adjusted to approximately 5% basal stimulation of the maximal possible glutamate effect) is added and the kinetic Ca2+ response of the wells was measured for the modulation effect.
The peak height of the Ca release related fluorescence signal (9-66) is used for the EC50. The EC50 of the modulation is calculated over a nonlinear regression with GraphPad Prism (Table 1).

T1 sequence (P41594 21-1212): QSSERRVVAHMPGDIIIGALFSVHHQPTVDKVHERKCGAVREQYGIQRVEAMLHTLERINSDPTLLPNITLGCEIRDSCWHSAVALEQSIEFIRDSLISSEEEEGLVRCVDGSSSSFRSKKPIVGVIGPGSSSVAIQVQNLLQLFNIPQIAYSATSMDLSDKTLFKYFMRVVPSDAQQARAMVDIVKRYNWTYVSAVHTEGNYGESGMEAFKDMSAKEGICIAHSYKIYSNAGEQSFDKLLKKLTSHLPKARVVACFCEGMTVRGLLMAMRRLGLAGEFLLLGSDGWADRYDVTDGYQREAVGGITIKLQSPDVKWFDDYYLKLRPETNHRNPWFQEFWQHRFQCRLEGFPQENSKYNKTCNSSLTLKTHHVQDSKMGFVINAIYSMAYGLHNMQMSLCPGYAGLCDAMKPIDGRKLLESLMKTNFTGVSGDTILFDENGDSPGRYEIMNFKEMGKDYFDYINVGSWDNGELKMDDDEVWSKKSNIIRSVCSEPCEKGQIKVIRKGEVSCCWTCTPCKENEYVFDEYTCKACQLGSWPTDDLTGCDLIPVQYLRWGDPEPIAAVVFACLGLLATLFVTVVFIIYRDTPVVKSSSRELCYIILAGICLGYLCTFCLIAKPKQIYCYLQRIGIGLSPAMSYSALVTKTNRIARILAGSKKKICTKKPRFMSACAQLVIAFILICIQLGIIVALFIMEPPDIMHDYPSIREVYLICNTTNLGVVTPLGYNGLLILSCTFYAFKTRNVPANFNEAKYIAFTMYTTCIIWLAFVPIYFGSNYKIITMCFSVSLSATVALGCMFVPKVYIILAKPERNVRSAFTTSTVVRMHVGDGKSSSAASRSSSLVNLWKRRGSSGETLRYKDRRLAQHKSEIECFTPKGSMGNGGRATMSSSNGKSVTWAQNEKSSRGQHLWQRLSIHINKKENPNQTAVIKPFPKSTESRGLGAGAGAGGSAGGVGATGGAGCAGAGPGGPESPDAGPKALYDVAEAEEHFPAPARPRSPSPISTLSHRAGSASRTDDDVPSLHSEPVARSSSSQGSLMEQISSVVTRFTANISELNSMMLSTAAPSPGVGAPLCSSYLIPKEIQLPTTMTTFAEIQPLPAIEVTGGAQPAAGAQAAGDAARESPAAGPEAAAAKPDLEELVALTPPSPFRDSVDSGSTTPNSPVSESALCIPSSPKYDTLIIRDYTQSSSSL

Row | EC50 [nM] | Structure (SMILES)
1 | 440 | COc1nccc(N2CCN(C(=O)Cn3nc(-c4ccc(F)cc4)nc3-c3ccc(F)cc3)CC2)n1 [Example 07.03.19.]
2 | 467 | O=C(Cn1nc(-c2ccc(F)cc2)nc1-c1ccc(F)cc1)N1CCN(c2ccc(Br)cn2)CC1 [Example 07.03.20.]
3 | 278 | O=C(Cn1nc(-c2ccc(F)cc2)nc1-c1ccc(F)cc1)N1CCN(c2nccc(C(F)(F)F)n2)CC1 [Example 07.03.21.]
4 | 476 | CN(C)c1nccc(N2CCN(C(=O)Cn3nc(-c4ccc(F)cc4)nc3-c3ccc(F)cc3)CC2)n1 [Example 07.03.22.]
5 | 1010 | CN(C)c1cc(N2CCN(C(=O)Cn3nc(-c4ccc(F)cc4)nc3-c3ccc(F)cc3)CC2)ccn1 [Example 07.03.23.]
6 | 254 | COc1cc(N2CCN(C(=O)Cn3nc(-c4ccc(F)cc4)nc3-c3ccc(F)cc3)CC2)ccn1 [Example 07.03.24.]
7 | 177 | CCc1cc(N2CCN(C(=O)Cn3nc(-c4ccc(F)cc4)nc3-c3ccc(F)cc3)CC2)ncn1 [Example 07.03.26.]
8 | 1210 | CCc1cc(N2CCN(C(=O)Cn3nc(-c4ccc(F)cc4)nc3-c3ccc(F)cc3)CC2)nc(Cl)n1 [Example 07.03.27.]
9 | 319 | Nc1cc(N2CCN(C(=O)Cn3nc(-c4ccc(F)cc4)nc3-c3ccc(F)cc3)CC2)ncn1 [Example 07.03.28.]
10 | 25 | COc1cnc(N2CCN(C(=O)Cn3nc(-c4ccc(F)cc4)nc3-c3ccc(F)cc3)CC2)nc1 [Example 07.04.001., 2-(3,5-Bis-(4-fluoro-phenyl)-(1,2,4)triazol-1-yl)-1-(4-(5-methoxy-pyrimidin-2-yl)-piperazin-1-yl)-ethanone]
11 | 2000 | COc1ccc(Cl)cc1N1CCN(C(=O)Cn2nc(-c3ccc(F)cc3)nc2-c2ccc(F)cc2)CC1 [Example 07.04.002.]
12 | 259 | O=C(Cn1nc(-c2ccc(F)cc2)nc1-c1ccc(F)cc1)N1CCN(c2ccncn2)CC1 [Example 07.04.003.]
13 | 600 | O=C(Cn1nc(-c2ccc(F)cc2)nc1-c1ccc(F)cc1)N1CCN(c2cccnc2)CC1 [Example 07.04.004.]
14 | 400 | O=C(Cn1nc(-c2ccc(F)cc2)nc1-c1ccc(F)cc1)N1CCN(c2cc3ccccc3cn2)CC1 [Example 07.04.005.]
15 | 899 | O=C(Cn1nc(-c2ccc(F)cc2)nc1-c1ccc(F)cc1)N1CCN(c2nccc3ccccc23)CC1 [Example 07.04.006.]
16 | 1350 | N#Cc1ccccc1N1CCN(C(=O)Cn2nc(-c3ccc(F)cc3)nc2-c2ccc(F)cc2)CC1 [Example 07.04.007.]
17 | 117 | O=C(Cn1nc(-c2ccc(F)cc2)nc1-c1ccc(F)cc1)N1CCN(c2cnccn2)CC1 [Example 07.04.008.]
18 | 166 | O=C(Cn1nc(-c2ccc(F)cc2)nc1-c1ccc(F)cc1)N1CCN(c2ccc(Cl)nn2)CC1 [Example 07.04.009.]
19 | 1200 | O=C(Cn1nc(-c2ccc(F)cc2)nc1-c1ccc(F)cc1)N1CCN(c2ccccc2O)CC1 [Example 07.04.010.]
20 | 1570 | N#Cc1ccc(N2CCN(C(=O)Cn3nc(-c4ccc(F)cc4)nc3-c3ccc(F)cc3)CC2)nc1 [Example 07.04.11.]
21 | 176 | O=C(Cn1nc(-c2ccc(F)cc2)nc1-c1ccc(F)cc1)N1CCN(c2ccc(Cl)cn2)CC1 [Example 07.04.12.]
22 | 1210 | O=C(Cn1nc(-c2ccc(F)cc2)nc1-c1ccc(F)cc1)N1CCN(c2ccccc2F)CC1 [Example 07.04.13.]
23 | 467 | COc1cccc(N2CCN(C(=O)Cn3nc(-c4ccc(F)cc4)nc3-c3ccc(F)cc3)CC2)c1 [Example 07.04.014.]
24 | 364 | O=C(Cn1nc(-c2ccc(F)cc2)nc1-c1ccc(F)cc1)N1CCN(c2cc(Cl)ccn2)CC1 [Example 07.04.015.]
25 | 62 | COc1cc(N2CCN(C(=O)Cn3nc(-c4ccc(F)cc4)nc3-c3ccc(F)cc3)CC2)ncn1 [Example 07.04.016.]
26 | 421 | COc1cnnc(N2CCN(C(=O)Cn3nc(-c4ccc(F)cc4)nc3-c3ccc(F)cc3)CC2)c1 [Example 07.04.017.]
27 | 200 | O=C(Cn1nc(-c2ccccc2)nc1-c1ccccc1)N1CCN(c2ncccn2)CC1 [Example 07.04.018.]

Row | EC50 [nM] | Structure (SMILES)
28 | 1090 | COc1cc(N2CCN(C(=O)Cn3nc(-c4ccccc4)nc3-c3ccccc3)CC2)ncn1 [Example 07.04.019.]
29 | 388 | COc1ccc(-c2nc(C3CCCCC3)n(CC(=O)N3CCN(c4ncccn4)CC3)n2)c(F)c1 [Example 07.04.020.]
30 | 647 | COc1ccc(-c2nc(C3CCCCC3)n(CC(=O)N3CCN(c4cc(C)ccn4)CC3)n2)c(F)c1 [Example 07.04.021.]
31 | 1040 | COc1ccc(-c2nc(C3CCCCC3)n(CC(=O)N3CCN(c4ccccn4)CC3)n2)c(F)c1 [Example 07.04.022.]
32 | 370 | O=C(Cn1nc(-c2cccc(F)c2)nc1-c1cccc(F)c1)N1CCN(c2ncccn2)CC1 [Example 07.04.023.]
33 | 945 | Cc1ccnc(N2CCN(C(=O)Cn3nc(-c4cccc(F)c4)nc3-c3cccc(F)c3)CC2)c1 [Example 07.04.024.]
34 | 868 | COc1cccc(-c2nc(-c3ccc(F)cc3)nn2CC(=O)N2CCN(c3cc(C)ccn3)CC2)c1 [Example 07.04.025.]
35 | 236 | COc1cccc(-c2nc(-c3ccc(F)cc3)nn2CC(=O)N2CCN(c3ncccn3)CC2)c1 [Example 07.04.026.]
36 | 38 | COc1cccc(-c2nc(-c3ccc(F)cc3)n(CC(=O)N3CCN(c4cc(C)ccn4)CC3)n2)c1 [Example 07.04.027.]
37 | 30 | COc1cccc(-c2nc(-c3ccc(F)cc3)n(CC(=O)N3CCN(c4ncccn4)CC3)n2)c1 [Example 07.04.028.]
38 | 1560 | O=C(Cn1nc(-c2ccc(F)cc2)nc1C1CCCCC1)N1CCN(c2ccccn2)CC1 [Example 07.04.029.]
39 | 1420 | Cc1ccnc(N2CCN(C(=O)Cn3nc(-c4ccc(F)cc4)nc3C3CCCCC3)CC2)c1 [Example 07.04.030.]
40 | 661 | O=C(Cn1nc(-c2ccc(F)cc2)nc1C1CCCCC1)N1CCN(c2ncccn2)CC1 [Example 07.04.031.]
41 | 39 | COc1ccc(-c2nc(-c3ccc(F)cc3)n(CC(=O)N3CCN(c4cc(C)ccn4)CC3)n2)cc1 [Example 07.04.032.]
42 | 37 | COc1ccc(-c2nc(-c3ccc(F)cc3)n(CC(=O)N3CCN(c4ncccn4)CC3)n2)cc1 [Example 07.04.033.]
43 | 52 | COc1ccc(-c2nc(-c3ccc(F)cc3)n(CC(=O)N3CCN(c4cc(OC)ncn4)CC3)n2)cc1 [Example 07.04.034.]
44 | 40 | COc1ccc(-c2nc(-c3ccc(F)cc3)n(CC(=O)N3CCN(c4ccccn4)CC3)n2)cc1 [Example 07.04.035.]
45 | 32 | COc1ccc(-c2nc(-c3ccc(F)cc3)n(CC(=O)N3CCN(c4ncc(Br)cn4)CC3)n2)cc1 [Example 07.04.036.]
46 | 114 | COc1ccc(-c2nc(-c3ccc(F)cc3)n(CC(=O)N3CCN(c4cccnn4)CC3)n2)cc1 [Example 07.04.037.]
47 | 23 | COc1ccc(-c2nc(-c3ccc(F)cc3)n(CC(=O)N3CCN(c4ncc(Cl)cn4)CC3)n2)cc1 [Example 07.04.038.]
48 | 30 | COc1ccc(-c2nc(-c3ccc(F)cc3)n(CC(=O)N3CCN(c4cc(OC)ccn4)CC3)n2)cc1 [Example 07.04.039.]
49 | 33 | COc1ccc(-c2nc(-c3ccc(F)cc3)nn2CC(=O)N2CCN(c3ncccn3)CC2)cc1 [Example 07.04.040.]
50 | 113 | COc1ccc(-c2nc(-c3ccc(F)cc3)nn2CC(=O)N2CCN(c3cc(C)ccn3)CC2)cc1 [Example 07.04.041.]
51 | 148 | COc1ccc(-c2nc(-c3ccc(F)cc3)nn2CC(=O)N2CCN(c3cc(OC)ncn3)CC2)cc1 [Example 07.04.042.]
52 | 334 | COc1ccc(-c2nc(-c3ccc(F)cc3)nn2CC(=O)N2CCN(c3cccnn3)CC2)cc1 [Example 07.04.043.]
53 | 88 | COc1ccc(-c2nc(-c3ccc(F)cc3)nn2CC(=O)N2CCN(c3ncc(Br)cn3)CC2)cc1 [Example 07.04.044.]
54 | 80 | COc1ccc(-c2nc(-c3ccc(F)cc3)nn2CC(=O)N2CCN(c3ncc(Cl)cn3)CC2)cc1 [Example 07.04.045.]
